# Laboratory results as given in patent US12605419B2, “Flavonoid extract of Cyclocarya paliurus leaves and antibacterial drugs and/or antibacterial agents containing thereof” (priority 2020, dated 2026).
# Read-outs that look alike come from different tables or passages of the source.
# Tests used:
# [1] = system: MRSA-4; experiment: Sensitivity test (MIC, broth dilution per CLSI); assay type: cell-based, Methicillin-resistant S. aureus; details: Staphylococcus aureus; strain MRSA-4; MHB with 2% NaCl, 34° C., 24 hours; minimum concentration without colony growth
# Method: Sensitivity test: 100 μl of the bacterial solution prepared above was added to the wells with serial concentration of drugs and the medium control. The plate was placed in a humidified box and incubated at 34° C. for 24 hours. […] The minimum drug concentration without colony growth was determined as the minimum inhibitory concentration (MIC).
# [2] = system: S. aureus ATCC25923; experiment: Sensitivity test (MIC, broth dilution per CLSI); assay type: cell-based; details: strain ATCC25923, MHB with 2% NaCl, 34° C., 24 hours, minimum concentration without colony growth
# Method: (§1) By referring to the methods and standards of the American Clinical and Laboratory Standards Institute (CLSI) for antimicrobial susceptibility testing, the drug resistance of each strain was verified. The MHB medium used in this test contained 2% NaCl (w/v).
# (§2) Preparation of test bacteria: each bacterium was respectively inoculated in 5 ml MHB medium, and cultured overnight at 37° C. on a shaker. The bacterial solution was adjusted to 0.5 McFarland turbidity (MCF) unit, and further diluted by 100 folds. The final bacterial concentration was 5×10^5 cfu/ml.
# (§3) Preparation of the flavonoids extract of C. paliurus leaves for application: 79.8 mg powder of the flavonoid extract from C. paliurus leaves prepared in Example 1 (based on the flavonoids proportion of 67.3581 wt. % in the flavonoids extract of C. paliurus leaves, the amount of flavonoids in the powder was 53.75 mg) was dissolved in 0.32 ml of DMSO, and further diluted with 3.68 ml MHB medium, to obtain the application solution of C. paliurus leaf with a flavonoids concentration at 13.44 mg/ml. […]
# (§4) Sensitivity test: 100 μl of the bacterial solution prepared above was added to the wells with serial concentration of drugs and the medium control. […] The minimum drug concentration without colony growth was determined as the minimum inhibitory concentration (MIC).
# [3] = system: MRSA-1; experiment: Sensitivity test (MIC, broth dilution per CLSI); assay type: cell-based, Methicillin-resistant S. aureus; details: strain MRSA-1, MHB with 2% NaCl, 34° C., 24 hours, minimum concentration without colony growth
# Method: as §1, §2
# (§5) Preparation of the flavonoids extract of C. paliurus leaves for application: 79.8 mg powder of the flavonoid extract from C. paliurus leaves prepared in Example 1 (based on the flavonoids proportion of 67.3581 wt. % in the flavonoids extract of C. paliurus leaves, the amount of flavonoids in the powder was 53.75 mg) was dissolved in 0.32 ml of DMSO, and further diluted with 3.68 ml MHB medium, to obtain the application solution of C. paliurus leaf with a flavonoids concentration at 13.44 mg/ml.
# (§6) 100 μl of medium was added into the second well, and serial 2-fold dilutions were prepared until to the ninth well. The 10th well was set as the medium control.
# (§7) Sensitivity test: 100 μl of the bacterial solution prepared above was added to the wells with serial concentration of drugs and the medium control. The plate was placed in a humidified box and incubated at 34° C. for 24 hours. 20 μl of each bacterial solution was taken and diluted 50 times with the medium, then 100 μl of the diluted bacterial solution was spread on the culture plate and incubated overnight at 37° C. The minimum drug concentration without colony growth was determined as the minimum inhibitory concentration (MIC).
# [4] = system: MRSA-2; experiment: Sensitivity test (MIC, broth dilution per CLSI); assay type: cell-based, Methicillin-resistant S. aureus; details: strain MRSA-2, MHB with 2% NaCl, 34° C., 24 hours, minimum concentration without colony growth
# Method: as §1, §2, §5, §6, §7
# [5] = system: MRSA-5; experiment: Sensitivity test (MIC, broth dilution per CLSI); assay type: cell-based, Methicillin-resistant S. aureus; details: strain MRSA-5, MHB with 2% NaCl, 34° C., 24 hours, minimum concentration without colony growth
# Method: as §1, §2, §5, §6, §7
# [6] = system: MRSA-3; experiment: Sensitivity test (MIC, broth dilution per CLSI); assay type: cell-based, Methicillin-resistant S. aureus; details: strain MRSA-3, MHB with 2% NaCl, 34° C., 24 hours, minimum concentration without colony growth
# Method: as §1, §2, §5, §6, §7
# [7] = system: MRSA strains; experiment: Sensitivity test, MRSA strains compared with ATCC25923; assay type: cell-based, Methicillin-resistant S. aureus; details: each MRSA strain vs ATCC25923
# Method: as §1, §2, §3, §4
# [8] = Staphylococcus aureus, read-out: MIC
SMILES,MIC [1],"MIC [2, 8]","MIC [3, 8]","MIC [4, 8]","MIC [5, 8]","MIC [6, 8]",Sensitivity of each MRSA strain compared with S. aureus ATCC25923 [7],MIC [2],MIC [3],MIC [4],MIC [5],MIC [6]
CC1(C)S[C@@H]2[C@H](NC(=O)Cc3ccccc3)C(=O)N2[C@H]1C(=O)O [penicillin sodium],32 µg/mL,0.0312 µg/mL,4 µg/mL,1 µg/mL,4 µg/mL,1 µg/mL,lower than that of the standard strain of S. aureus ATCC25923,–,–,–,–,–
Cc1onc(-c2ccccc2)c1C(=O)N[C@@H]1C(=O)N2[C@@H]1SC(C)(C)[C@@H]2C(=O)[O-].[Na+] [oxacillin sodium],–,–,–,–,–,–,lower than that of the standard strain of S. aureus ATCC25923,0.125 µg/mL,0.5 µg/mL,0.5 µg/mL,0.5 µg/mL,0.5 µg/mL
